Measured values taken from US20260285846A1, “REV-ERB AGONISTS FOR TH17-MEDIATED INFLAMMATORY DISORDERS” (UNIVERSITY OF FLORID RESEARCH FOUNDATION, iNCORPORATED, priority 2021, published 2026).

The compounds below were run against REV-ERBα LBD (Homo sapiens, UniProt P20393, DEL324-422) (assay: biochemical). Details: FRET assay; 6xHistag-REV-ERBα LBD with FITC-labeled SMRT corepressor peptide; read-out: REVERBα (Agonism of REV-ERBα, EC50).
Summary of the method: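 TR-FRET corepressor recruitment: 4 nM His-tagged human REV-ERBα LBD (residues 281-614 Δ324-422, or 381-579), 1 nM Tb-anti-His antibody and 400 nM FITC-SMRT peptide in pH 7.4 phosphate buffer with DTT; ligands in triplicate, 2 h at 4° C. 520/495 nm ratio fitted to sigmoidal dose-response for EC50.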

Chain of REV-ERBα LBD (P20393 with tags, fused parts or gaps DEL324-422): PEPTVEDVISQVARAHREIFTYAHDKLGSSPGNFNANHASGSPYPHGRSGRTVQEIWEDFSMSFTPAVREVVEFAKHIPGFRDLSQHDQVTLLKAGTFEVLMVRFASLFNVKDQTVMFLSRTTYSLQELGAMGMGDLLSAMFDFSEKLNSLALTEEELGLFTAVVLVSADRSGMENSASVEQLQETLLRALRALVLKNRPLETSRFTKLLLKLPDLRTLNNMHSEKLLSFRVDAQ
Chain of REV-ERBα LBD (Q9Y618 2335-2356 partner limits assumed): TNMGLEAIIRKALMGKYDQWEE

Row | Structure (SMILES) | EC50 [µM]
1 | Cc1ncc(F)cc1-c1cc2c(cc1F)c([C@H](NS(=O)(=O)C1CC1)C(F)F)cn2CC(C)(C)C [Compound 95, (S)—N-(2,2-difluoro-1-(5-fluoro-6-(5-fluoro-2-methylpyridin-3-yl)-1-neopentyl-1H-indol-3-yl)ethyl)cyclopropanesulfonamide] | < 0.1
2 | O=S(=O)(N[C@@H](c1cn(C2CCC2)c2nc(-c3cccnc3C(F)(F)F)c(F)cc12)C(F)F)C1CC1 [Compound 147] | < 0.1
3 | CC(C)(C)Cn1cc([C@H](NS(=O)(=O)C2CC2)C(F)F)c2cc(F)c(-c3ccc(C#N)nc3C(F)(F)F)cc21 [Compound 110, (S)—N-(1-(6-(6-cyano-2-(trifluoromethyl)pyridin-3-yl)-5-fluoro-1-neopentyl-1H-indol-3-yl)-2,2-difluoroethyl)cyclopropanesulfonamide] | < 0.1
4 | CC(NS(=O)(=O)C1CC1)c1cn(CC(C)(C)C)c2cc(-c3c(F)cccc3C#N)ccc12 (single isomer, unassigned) [Compound 27, (S or R) N-[(1R)-1-[6-(2-cyano-6-fluoro-phenyl)-1-(2,2-dimethylpropyl)indol-3-yl]ethyl]cyclo] | < 0.1
5 | CC(C)(C)Cn1cc([C@H](NS(=O)(=O)C2CC(F)(F)C2)C(F)F)c2ccc(-c3ccccc3C(F)(F)F)cc21 [Compound 11, (S)—N-(2,2-difluoro-1-(1-neopentyl-6-(2-(trifluoromethyl)phenyl)-1H-indol-3-yl)ethyl)-3,3-difluorocyclobutane-1-sulfonamide] | < 0.1
6 | CC(C)(C)Cn1cc([C@H](NS(=O)(=O)C2CC2)C(F)F)c2cc(F)c(-c3cccnc3C(F)(F)F)cc21 [Compound 38, (S)—N-(2,2-difluoro-1-(5-fluoro-1-neopentyl-6-(2-(trifluoromethyl)pyridin-3-yl)-1H-indol-3-yl)ethyl)cyclopropanesulfonamide] | < 0.1
7 | CC(C)(C)Cn1cc([C@H](NS(=O)(=O)C2CC2)C(F)F)c2cc(F)c(-c3ncccc3Cl)cc21 [Compound 90, (S)—N-(1-(6-(3-chloropyridin-2-yl)-5-fluoro-1-neopentyl-1H-indol-3-yl)-2,2-difluoroethyl)cyclopropanesulfonamide] | < 0.1
8 | CC(C)(C)Cn1cc([C@H](NS(=O)(=O)C2CCC2)C(F)F)c2cc(F)c(-c3cc(F)cnc3C(F)(F)F)cc21 [Compound 137, (S)—N-(2,2-difluoro-1-(5-fluoro-6-(5-fluoro-2-(trifluoromethyl)pyridin-3-yl)-1-neopentyl-1H-indol-3-yl)ethyl)cyclobutanesulfonamide] | < 0.1
9 | CC(C)(C)Cn1cc([C@H](NS(=O)(=O)C2CC2)C(F)F)c2cc(F)c(-c3cccnc3C(F)(F)F)nc21 [Compound 145, (S)—N-(2,2-difluoro-1-(5-fluoro-1-neopentyl-6-(2-(trifluoromethyl)pyridin-3-yl)-1H-pyrrolo[2,3-b]pyridin-3-yl)ethyl)cyclopropanesulfonamide] | < 0.1
10 | O=S(=O)(N[C@@H](c1cn(C2CCC2)c2cc(-c3cccnc3C(F)(F)F)c(F)cc12)C(F)F)C1CC1 [Compound 146, (S)—N-(1-(1-cyclobutyl-5-fluoro-6-(2-(trifluoromethyl)pyridin-3-yl)-1H-indol-3-yl)-2,2-difluoroethyl)cyclopropanesulfonamide] | < 0.1
11 | CC(NS(=O)(=O)C1CC1)c1cn(CC(C)(C)C)c2cc(-c3ncccc3C(F)(F)F)c(F)cc12 (single isomer, unassigned) [Compound 17, (R or S)—N-(1-(5-fluoro-1-neopentyl-6-(3-(trifluoromethyl)pyridine-2-yl)-1H-indol-3-yl)ethyl)cyclopropane sulfonamide] | 0.1 to 1
12 | CC(C)(C)Cn1cc([C@H](NS(=O)(=O)C2CCC2)C(F)F)c2cc(F)c(-c3ccc(F)cc3C(F)(F)F)cc21 [Compound 170, (S)—N-(2,2-difluoro-1-(5-fluoro-6-(4-fluoro-2-(trifluoromethyl)phenyl)-1-neopentyl-1H-indol-3-yl)ethyl)cyclobutanesulfonamide] | < 0.1
